Data: patent publication US11229599B2, “Implant compositions for the unidirectional delivery of therapeutic compounds to the brain” (Board of Regents, the University of Texas System, priority 2015, dated 2022)

Test: Differential scanning calorimetry, physical state of APAP in glycerol behenate
Format: physicochemical
Conditions: FIG. 6; 5% APAP+95% glycerol behenate, physical blend and melt mix
Description: Differential scanning calorimetry testing was performed using a TA Thermal Analyzer (Model DSC Q20, TA Instruments, New Castle, Del., US). The temperature was calibrated with an indium standard. Sample size was about 5 mg and a temperature ramp of 10° C. per minute was used. Universal Analysis 2000 data analysis software was used for data analysis. Inflection point method was used for the analysis of the glass transition temperature. The melting temperature is defined as the intersection of the extension of the baseline with the tangent at the inflection point of the curve.

physical state of APAP in glycerol behenate: dispersed as crystalline particles
SMILES: CC(=O)Nc1ccc(O)cc1 [APAP, acetaminophen]
